target: T1, human β2 adrenergic receptor (Homo sapiens, UniProt P07550); experiment: Cell based cAMP assay in CHO cells recombinantly expressing the human β2 adrenergic receptor (cAMP-Flashplate); conditions: CHOhβ2 cells, 1 hour incubation
T1 construct: expressed in transfected cells; host or cells: CHO (Chinese Hamster Ovary) cells, CHOhβ2
Description: According to another alternative, the agonist potency for the […] of the indole derivatives of the formula (1) may also be determined by the measure of the concentration of compound according to the present invention required to produce half maximal effect (EC50) for the β2 receptor.
10 mM/100% DMSO (dimethylsulfoxide) stock of compound is diluted to required top dose in 4% DMSO. This top dose is used to construct a 10-point semi-log dilution curve, all in 4% DMSO. […] Data was expressed as % Isoprenaline response.
Cells were seeded to give about 90% confluency for testing.
25 μl/well each dose of compound was transferred into a cAMP-Flashplate® (NEN, SMP004B), with 1% DMSO as basal controls and 100 nM Isoprenaline as max controls. This was diluted 1:2 by the addition of 25 μl/well PBS. […] Compounds were incubated with 50 μl/well cells for 1 hour. […] Dose-response data was expressed as % Isoprenaline activity and fitted using a four parameter sigmoid fit.

T1 sequence (P07550 whole entry): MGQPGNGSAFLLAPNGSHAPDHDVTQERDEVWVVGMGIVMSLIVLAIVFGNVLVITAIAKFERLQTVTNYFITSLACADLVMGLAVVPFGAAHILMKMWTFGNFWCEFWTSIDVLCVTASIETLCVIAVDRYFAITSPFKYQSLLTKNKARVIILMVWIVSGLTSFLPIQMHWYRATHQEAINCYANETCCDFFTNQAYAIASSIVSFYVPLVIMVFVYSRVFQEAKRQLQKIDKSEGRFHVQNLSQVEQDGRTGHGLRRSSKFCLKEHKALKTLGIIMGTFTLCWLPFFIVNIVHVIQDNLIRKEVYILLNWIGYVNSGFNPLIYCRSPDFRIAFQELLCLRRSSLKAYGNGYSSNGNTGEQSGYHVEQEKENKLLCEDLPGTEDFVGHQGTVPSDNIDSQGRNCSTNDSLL

| SMILES | EC50 [nM] |
| --- | --- |
| COc1cccc(OC)c1CNC(=O)c1cc2cc(C[C@@H](C)NC[C@H](O)c3ccc(O)c(CO)c3)ccc2[nH]1 [Example 3, N-(2,6-dimethoxybenzyl)-5-[(2R)-2-({(2R)-2-hydroxy-2-[4-hydroxy-3-(hydroxymethyl)phenyl]ethyl}amino)propyl]-1H-indole-2-carboxamide] | 0.05 |
| C[C@H](Cc1ccc2[nH]c(C(=O)NCc3ccc(C(F)(F)F)cc3)cc2c1)NC[C@H](O)c1ccc(O)c(CO)c1 [Example 2, 5-[(2R)-2-({(2R)-2-hydroxy-2-[4-hydroxy-3-(hydroxymethyl)phenyl]ethyl}amino)propyl]-N-[4-(trifluoromethyl)benzyl]-1H-indole-2-carboxamide] | 0.8 |
| CCn1c(C(=O)NCc2ccc(Cl)cc2)cc2cc(C[C@@H](C)NC[C@H](O)c3ccc(O)c(CO)c3)ccc21 [Example 29, 1-Ethyl-5-[(2R)-2-({(2R)-2-hydroxy-2-(4-hydroxy-3-hydroxymethylphenyl)ethyl}amino)propyl}-N-(4-chlorobenzyl)-1H-indole-2-carboxamide] | 3.99 |
| COc1cc(O)cc(OC)c1CNC(=O)c1cc2cc(C[C@@H](C)NC[C@H](O)c3ccc(O)c(CO)c3)ccc2[nH]1 [Example 9, 5-[(2R)-2-({(2R)-2-Hydroxy-2-(4-hydroxy-3-hydroxymethylphenyl)ethyl]amino)propyl]-N-(4-hydroxy-2,6-dimethoxybenzyl)-1H-indole-2-carboxamide] | 0.02 |

The next lines start with the values.

| EC50 [nM] | SMILES |
| --- | --- |
| 0.02 | COc1ccccc1CNC(=O)c1cc2cc(C[C@@H](C)NC[C@H](O)c3ccc(O)c(CO)c3)ccc2[nH]1 [Example 1, 5-[(2R)-2-({(2R)-2-hydroxy-2-[4-hydroxy-3-(hydroxymethyl)phenyl]ethyl}amino)propyl]-N-(2-methoxybenzyl)-1H-indole-2-carboxamide] |
| 0.02 | C[C@H](Cc1ccc2[nH]c(C(=O)N(C)Cc3ccccc3)cc2c1)NC[C@H](O)c1ccc(O)c(CO)c1 [Example 22, 5-[(2R)-2-({(2R)-2-Hydroxy-2-(4-hydroxy-3-hydroxymethylphenyl)ethyl}amino)propyl}-N-benzyl-N-methyl-1H-indole-2-carboxamide] |
| 0.38 | CC[C@H](Cc1ccc2[nH]c(C(=O)NCc3ccccc3)cc2c1)NC[C@H](O)c1ccc(O)c(CO)c1 [Example 36, 5-[(2R)-2-({(2R)-2-Hydroxy-2-(4-hydroxy-3-hydroxymethylphenyl)ethyl]amino)butyl}-N-benzyl-1H-indole-2-carboxamide] |
| 0.12 | COc1cccc(CNC(=O)c2cc3cc(C[C@@H](C)NC[C@H](O)c4ccc(O)c(CO)c4)ccc3[nH]2)c1 [Example 4, 5-[(2R)-2-({(2R)-2-hydroxy-2-[4-hydroxy-3-(hydroxymethyl)phenyl]ethyl}amino)propyl]-N-(3-methoxybenzyl)-1H-indole-2-carboxamide] |

Reference: patent US7138527B2, “Indole derivatives useful for the treatment of diseases” (Pfizer Inc., priority 2002, dated 2006)
